EC50, selectivity ratio and CC50 data for 34 compounds are collected here from ChEMBL document CHEMBL4190367, “Heterocyclic pharmacochemistry of new rhinovirus antiviral agents: A combined computational and experimental study” (Eur J Med Chem, 2017).

The test system of one data set is rhinovirus B14. Kind of data set: Antiviral activity against Human rhinovirus B14 infected in human HeLa Rh cells assessed as protection against virus induced cytopathic effect after 3 days in presence of 10% inactivated FBS by MTT assay. It counts as functional, organism-based. To be noted: Rhinovirus B, 72 h.
Data set [1] can be described thus: Selectivity index, ratio of CC50 for un-infected human HeLa Rh cells to EC50 for Human rhinovirus B14 infected in human HeLa Rh cells. Type of data set: toxicity, cell-based. To be noted: read-out: Ratio CC50/EC50.
Data set [2] is described as follows: Cytotoxicity in un-infected human HeLa Rh cells assessed as reduction in cell viability incubated for 3 days by MTT assay. It counts as cell-based.

One may read the EC50 as the concentration giving half of the maximal effect. For orientation: CC50 means the concentration at which the toxic effect on the cells reaches its halfway point. As for `COc1cc(CC(O)c2ccc(N3CCCCC3)cc2)c([N+](=O)[O-])cc1OC` (stereo not drawn), the EC50 with rhinovirus B14 stood at 1.88 µM. In addition, in data set [1], the selectivity ratio was determined as 28.7. The CC50 at 72 h in data set [2] came to 53.9 µM.
`COc1cc(CC(O)c2ccc(-c3cc(C(F)(F)F)nn3C)cc2)c([N+](=O)[O-])cc1OC` (stereo not drawn): in the data set with rhinovirus B14, the EC50 was greater than 222 µM. The CC50 at 72 h in data set [2] is 12.1 µM.
Consider `COc1cc(C[C@H](O)c2ccc(-n3cccn3)cc2)c([N+](=O)[O-])cc1OC`, for which, in the data set with rhinovirus B14, the EC50 was determined as 0.35 µM. Besides, the selectivity ratio in data set [1] was greater than 774. Besides, the CC50 at 72 h in data set [2] was greater than 271 µM.
The matching figures for `CCOC(=O)N1CCN(c2ccc(C(O)Cc3cc(OC)c(OC)cc3[N+](=O)[O-])cc2)CC1` (stereo not drawn): 18.1 µM, 1.9 and 33.8 µM.
The like results for `COc1cc(CC(O)c2ccc(-c3cn[nH]c3)cc2)c([N+](=O)[O-])cc1OC` (stereo not drawn) were, in that order, 0.76 µM, greater than 356 and greater than 271 µM.
On to `COc1cc(CC(O)c2ccc(N3CCNCC3)cc2)c([N+](=O)[O-])cc1OC` (stereo not drawn), for which, in the data set on rhinovirus B14, the EC50 worked out at 238 µM. Moreover, the CC50 at 72 h in data set [2] is greater than 258 µM.
The like results for `COc1cc(C[C@@H](O)c2ccc(-n3cncn3)cc2)c([N+](=O)[O-])cc1OC` were, in that order, greater than 50 µM and greater than 271 µM.
On to `COc1cc(C[C@@H](O)c2ccc(C#N)cc2)c([N+](=O)[O-])cc1OC`, for which the EC50 with rhinovirus B14 was 10.6 µM. Besides, the selectivity ratio in data set [1] turned out to be 16.8. Moreover, in data set [2], the CC50 at 72 h was 178 µM.
The matching figures for `COc1cc(C[C@@H](O)c2ccc(-c3cn[nH]c3)cc2)c([N+](=O)[O-])cc1OC`: 35.6 µM, greater than 7.74 and greater than 271 µM.
The like results for `COc1cc(C[C@H](O)c2ccc(C#N)cc2)c([N+](=O)[O-])cc1OC` were, in that order, 0.26 µM, 685 and 178 µM.
The matching figures for `COc1cc(CC(O)c2ccc(-n3cccn3)cc2)c([N+](=O)[O-])cc1OC` (stereo not drawn): 0.58 µM, greater than 467 and greater than 271 µM.
`Cc1cc(CCCOc2c(C)cc(-c3noc(C(F)(F)F)n3)cc2C)on1` [PLECONARIL]: the selectivity ratio in data set [1] is greater than 437. Besides, the CC50 at 72 h in data set [2] was greater than 131 µM.
In the case of `COc1cc(CC(O)c2ccc(C#N)cc2)c([N+](=O)[O-])cc1OC` (stereo not drawn), the EC50 with rhinovirus B14 was 2.3 µM. Further, the selectivity ratio in data set [1] is 77.3. Also, the CC50 at 72 h in data set [2] was 178 µM.
Consider `COc1cc(C[C@H](O)c2ccc(-n3cncn3)cc2)c([N+](=O)[O-])cc1OC`, for which, in the data set on rhinovirus B14, the EC50 was 0.34 µM. Moreover, the selectivity ratio in data set [1] is greater than 797. Further, the CC50 at 72 h in data set [2] was greater than 271 µM.
The like results for `COc1cc(CC(O)c2ccc(N3CCCC3)cc2)c([N+](=O)[O-])cc1OC` (stereo not drawn) were, in that order, 1.94 µM, greater than 139 and greater than 269 µM.
The like results for `COc1cc(C[C@H](O)c2ccc(C(F)(F)F)cc2)c([N+](=O)[O-])cc1OC` were, in that order, 0.46 µM, 90.8 and 41.8 µM.
The like results for `COc1cc(C[C@@H](O)c2ccc(-n3cccn3)cc2)c([N+](=O)[O-])cc1OC` were, in that order, 42 µM, greater than 6.5 and greater than 271 µM.
Consider `COc1cc(CC(O)c2ccc(-c3cncnc3)cc2)c([N+](=O)[O-])cc1OC` (stereo not drawn), for which the EC50 in the data set with rhinovirus B14 is 2.22 µM. The selectivity ratio in data set [1] is greater than 122. For the same compound, the CC50 at 72 h in data set [2] was greater than 271 µM.
Take `COc1cc(C[C@@H](O)c2cccnc2)c([N+](=O)[O-])cc1OC`: the EC50 with rhinovirus B14 is greater than 200 µM. For the same compound, the CC50 at 72 h in data set [2] was greater than 200 µM.
Regarding `COc1cc(CC(O)c2ccc(-c3cnn(C)c3)cc2)c([N+](=O)[O-])cc1OC` (stereo not drawn), in the data set with rhinovirus B14, the EC50 was greater than 270 µM. The CC50 at 72 h in data set [2] is 17.4 µM.
Consider `COc1cc(CC(O)c2cccnc2)c([N+](=O)[O-])cc1OC` (stereo not drawn), for which the EC50 in the data set with rhinovirus B14 was found to be 2 µM. For the same compound, the selectivity ratio in data set [1] was greater than 131. Moreover, in data set [2], the CC50 at 72 h is greater than 263 µM.
The matching figures for `COc1cc(CC(O)c2ccc(-c3ccc(C(F)(F)F)nc3)cc2)c([N+](=O)[O-])cc1OC` (stereo not drawn): 8.96 µM, 16.9 and 152 µM.
Take `COc1cc(C[C@@H](O)c2ccncc2)c([N+](=O)[O-])cc1OC`: in the data set on rhinovirus B14, the EC50 is greater than 200 µM. The CC50 at 72 h in data set [2] was found to be 55.2 µM.
Take `COc1cc(C[C@H](O)c2cccnc2)c([N+](=O)[O-])cc1OC`: in the data set on rhinovirus B14, the EC50 turned out to be 0.59 µM. Moreover, the selectivity ratio in data set [1] was greater than 339. Moreover, the CC50 at 72 h in data set [2] was greater than 200 µM.
The like results for `COc1cc(CC(O)c2ccc(N3CCOCC3)cc2)c([N+](=O)[O-])cc1OC` (stereo not drawn) were, in that order, 11.7 µM, 16.5 and 193 µM.
As for `COc1cc(C[C@H](O)c2ccncc2)c([N+](=O)[O-])cc1OC`, the EC50 with rhinovirus B14 was found to be 1.16 µM. Moreover, the selectivity ratio in data set [1] is greater than 172. Moreover, in data set [2], the CC50 at 72 h is greater than 200 µM.
The matching figures for `COc1cc(CC(O)c2ccc(-c3ccco3)cc2)c([N+](=O)[O-])cc1OC` (stereo not drawn): 0.61 µM, 52.5 and 32 µM.
The matching figures for `COc1cc(CC(O)c2ccncc2)c([N+](=O)[O-])cc1OC` (stereo not drawn): 3.4 µM, greater than 77 and greater than 263 µM.
The like results for `COc1cc(C[C@H](O)c2ccc(-c3cn[nH]c3)cc2)c([N+](=O)[O-])cc1OC` were, in that order, 0.25 µM, greater than 1080 and greater than 271 µM.
As for `COc1cc(CC(O)c2ccc(N3CCC(C)CC3)cc2)c([N+](=O)[O-])cc1OC` (stereo not drawn), the EC50 with rhinovirus B14 was found to be 1.91 µM. Besides, the selectivity ratio in data set [1] is greater than 131. Also, the CC50 at 72 h in data set [2] was greater than 250 µM.
Turning to `COc1cc(C[C@@H](O)c2ccc(C(F)(F)F)cc2)c([N+](=O)[O-])cc1OC`, in the data set on rhinovirus B14, the EC50 was greater than 200 µM. For the same compound, in data set [2], the CC50 at 72 h is 13.9 µM.
On to `COc1cc(CC(O)c2ccc(-c3ccsc3)cc2)c([N+](=O)[O-])cc1OC` (stereo not drawn), for which the EC50 with rhinovirus B14 stood at 0.54 µM. In addition, the selectivity ratio in data set [1] stood at 21.3. In data set [2], the CC50 at 72 h turned out to be 11.5 µM.
The matching figures for `COc1cc(CC(O)c2ccc(-n3cncn3)cc2)c([N+](=O)[O-])cc1OC` (stereo not drawn): 0.92 µM, greater than 295 and greater than 271 µM.
Take `COc1cc(CC(O)c2ccc(C(F)(F)F)cc2)c([N+](=O)[O-])cc1OC` (stereo not drawn): in the data set with rhinovirus B14, the concentration giving a half-maximal response (EC50) was found to be 2 µM. For the same compound, in data set [2], the CC50 at 72 h worked out at 49.7 µM.
